This experiment concerns the target T1, Broad substrate specificity ATP-binding cassette transporter ABCG2 (Homo sapiens, UniProt Q9UNQ0).
T1 sequence (Q9UNQ0 whole entry): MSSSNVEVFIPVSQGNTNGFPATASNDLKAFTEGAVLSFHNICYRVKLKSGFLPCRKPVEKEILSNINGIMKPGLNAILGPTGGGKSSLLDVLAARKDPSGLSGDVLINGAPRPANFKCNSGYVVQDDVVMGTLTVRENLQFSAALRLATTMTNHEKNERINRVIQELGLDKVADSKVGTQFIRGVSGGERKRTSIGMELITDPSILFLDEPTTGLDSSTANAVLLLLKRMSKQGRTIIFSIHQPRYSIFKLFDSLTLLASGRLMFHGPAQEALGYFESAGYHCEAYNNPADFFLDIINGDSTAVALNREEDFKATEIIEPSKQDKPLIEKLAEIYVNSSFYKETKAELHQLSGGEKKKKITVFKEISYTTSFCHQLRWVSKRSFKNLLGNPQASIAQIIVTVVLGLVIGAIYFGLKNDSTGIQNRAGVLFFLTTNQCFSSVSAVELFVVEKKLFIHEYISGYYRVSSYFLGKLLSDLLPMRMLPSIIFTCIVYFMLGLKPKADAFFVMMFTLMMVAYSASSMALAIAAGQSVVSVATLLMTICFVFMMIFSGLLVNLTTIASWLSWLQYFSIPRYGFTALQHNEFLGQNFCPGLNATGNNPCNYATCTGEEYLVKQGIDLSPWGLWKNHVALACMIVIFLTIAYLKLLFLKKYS
The experiment in a line: Inhibition of ABCG2 expressed in human NCI-H460 cells assessed as increase in PhA accumulation after 2 to 20 hrs relative to fumitremorgin C.

In the case of `COc1ccc([C@@H]2CC(=O)c3c(O)cc(O)c(CC=C(C)C)c3O2)cc1O`, the IC50 (as a rule, the concentration that inhibits the measured activity by half) came out at 6.6 µM.

As for `CC(C)=CCc1c(O)c(CC=C(C)C)c2c(c1O)C(=O)C[C@@H](c1cc(O)cc(O)c1)O2`, the half-inhibitory concentration (IC50) amounted to 4.1 µM.

For the compound `CC(C)=CCC/C(C)=C/Cc1c(O)cc(O)c2c1O[C@H](c1cc(O)cc(O)c1)CC2=O`, the IC50 is 15.5 µM.

As to `COc1cc(O)c(CC=C(C)C)c(-c2oc3cc(O)cc(O)c3c(=O)c2OC)c1`, the IC50 amounted to 8.4 µM.

Regarding `C/C(=C/Cc1c(-c2cc(O)c(O)cc2O)oc2c3c(cc(O)c2c1=O)OC(C)(C)C=C3)CO`, the IC50 came to 6.5 µM.

Regarding `CC(C)=CCc1c(O)cc(O)c2c1O[C@H](c1ccc(O)cc1)CC2=O`, the IC50 worked out at 3.1 µM.

As for `COc1ccc([C@@H]2CC(=O)c3c(O)cc(O)c(CC=C(C)C)c3O2)cc1`, the IC50 was found to be 22.6 µM.

In the case of `COc1cc(O)c2c(=O)c(OC)c(-c3ccc(OC)c(O)c3)oc2c1` [AYANIN], the IC50 worked out at 5.7 µM.

Regarding `COc1ccc2c3c([nH]c2c1)[C@H](C=C(C)C)N1C(=O)[C@@H]2CCCN2C(=O)[C@@H]1C3` [FUMITREMORGIN], the IC50 amounted to 0.8 µM.

For `O=c1cc(-c2ccc(O)c(O)c2)oc2cc(O)cc(O)c12` [LUTEOLIN], the IC50 is 8.9 µM.

As for `CC(C)=CCC/C(C)=C/Cc1c(O)cc2oc(-c3ccc(O)cc3)c(O)c(=O)c2c1O` [MACARANGIN], the IC50 was 5.7 µM.

Take `COc1cc(O)c2c(=O)c(OC)c(-c3ccc(O)c(OC)c3)oc2c1` [PACHYPODOL]: the IC50 was 17.2 µM.

In the case of `CC(C)=CCC/C(C)=C/Cc1c(O)cc(O)c2c1O[C@H](c1ccc(O)cc1)CC2=O` [SOPHORAFLAVANONE A], the IC50 was determined as 12.3 µM.

The values above are taken from ChEMBL document CHEMBL1687875, “Flavonoids from eight tropical plant species that inhibit the multidrug resistance transporter ABCG2” (J Nat Prod, 2011).
